Patent publication US20050209157A1, “Short bioactive peptides and methods for their use” (priority 2001, published 2005)
≈ marks a conversion by molar mass, not a printed value. No end group written: not given here.

Key:
in vitro [1] = settings: human, WI38 normal lung fibroblast cells, WI38 LD50, Table 41, lower part
WI38 = settings: Table 42
human leukocytes (WBC) = test: Leukocyte (WBC) inhibition, toxicity LD50; type: cell-based; settings: Table 42
Procedure: (§1) In vitro viability of human leukocyte cells in the presence of different peptides at different concentrations was determined by an Alamar Blue protocol. Alamar Blue (Promega, Madison, Wis.) is an indicator dye, formulated to measure quantitatively the proliferation and cytotoxicity of the cells. The dye consists of an oxidation-reduction (redox) indicator that yields a calorimetric change and a fluorescent signal in response to cellular metabolic activity.
(§2) Assay protocol: Blood from a human was drawn and centrifuged at 1500 rpm for 15 minutes at room temperature. The buffy coat cells at the plasma-red blood cell interface were aspirated. Buffy coat cells (mainly lymphocyte cells) were then transferred into 15 ml centrifuge tubes containing 5 ml of RPMI-1640 medium+10% Fetal Bovine Serum (Gibco, Grand Island, N.Y.). Additional medium was added to the tubes to bring the volume up to 10 ml. The buffy coat suspension was then carefully layered on 5 ml of Histopaque (Sigma Chemical Co., St. Louis, Mo.) and centrifuged at 1500 rpm for 30 minutes at room temperature. The interface which is mostly PBMCs (peripheral mononuclear cells) was aspirated and transferred to a 15 ml conical centrifuge tube and, resuspended in 2 ml cold RPMI-1640 and brought up to 15 ml with cold RPMI-1640 medium. Cells were centrifuged at 1500 rpm for 10 minutes. The supernatant was then aspirated and discarded. The cell pellet was re-suspended in 1 ml of cold RPMI 1640 and brought up to 15 ml with RPMI medium. This step was repeated twice, except that in the last step, the cells were resuspended with 1 ml of cold RPMI-1640 medium and cell counts were performed with a hemocytometer according to the Sigma cell culture catalogue.
(§3) Pokewood mitogen was used as a control along with positive and negative controls. Negative control cells were killed with 70% methanol. Positive (+) control cells were incubated in RPMI medium (untreated). […] of AlamarBlue was added to the cells, and readings were taken after 24 hours, 48 hours, 72 hours, and 96 hours using a fluorimeter (excitation 544/transmission 590 nm).
(§4) In choosing a peptide for possible treatment of a given indication it is important to match the therapeutic activity and specificity of the peptide with its possible toxic properties.
(§5) The protocols for WBC and WI38 stimulation have been discussed above. The RBC protocol follows Table 24.

[2] = Leukocyte (WBC) inhibition, toxicity LD50; type: cell-based, human; settings: male, human, human leukocytes (buffy coat cells, mostly PBMCs); Table 41, lower part
Procedure: as §1, §2, §3, §4, §5

[3] = tested on: human red blood cells (RBC); test: in vitro; type: cell-based; settings: Table 42
in vitro [4] = type: cell-based, human; settings: human, human red blood cells, pH 7, Table 41, lower part; read-out: RBC LD50
MCF7 = test: Anti-cancer assay, MTT, LD50; type: cell-based
Description: Numbers are LD50 values (μg/mL).

[5] = tested on: Pseudomonas syringae pv. tabaci (PSPT)
[6] = tested on: Pseudomonas solanacearum (PS)
[7] = Synergy of Shiva-1 and lysozyme, percent viability; type: cell-based, Pseudomonas aeruginosa; settings: Pseudomonas aeruginosa
Procedure: The percent viability of Pseudomonas aeruginosa was determined relative to blank controls.

[8] = Synergy of Shiva-1 and lysozyme, percent viability; type: cell-based, Staphylococcus aureus; settings: S. aureus
Procedure: (§6) The percent viability of gram positive S. intermedius 19930, S. intermedius 20034, and S. aureus was determined relative to blank controls.

[9] = tested on: Xanthomonas campestris pv. campestris (XC)
[10] = Synergy of Shiva-1 and lysozyme, percent viability; type: cell-based, Staphylococcus intermedius
Procedure: as §6

[11] = tested on: Erwinia caratovora subsp. carotova (EC)

CC(C)C[C@H](NC(=O)[C@H](C)NC(=O)[C@H](CC(C)C)NC(=O)[C@H](CCCCN)NC(=O)[C@H](C)NC(=O)[C@H](CC(C)C)NC(=O)[C@H](CCCCN)NC(=O)[C@H](CCCCN)NC(=O)[C@H](C)NC(=O)[C@H](CC(C)C)NC(=O)[C@H](CCCCN)NC(=O)[C@H](C)NC(=O)[C@H](CC(C)C)NC(=O)[C@H](CCCCN)NC(=O)[C@H](CCCCN)NC(=O)[C@H](C)NC(=O)[C@@H](N)Cc1ccccc1)C(N)=O [17 (35)]
CC50 at 24 h (in vitro [1]): 25 µg/mL (≈ 13.5 µM)
WI38 LD50 (WI38): 25 µg/mL
WBC LD50 (human leukocytes (WBC)): 25 µg/mL
CC50 [2]: 25 µg/mL (≈ 13.5 µM)
RBC LD50 [3]: 200 µg/mL
HC50 at 1 h (in vitro [4]): 200 µg/mL
MCF7 LD50 (MCF7; Table 41, lower part): 9 µg/mL
MCF7 LD50 (MCF7; Table 42): 9 µg/mL

CC(C)C[C@H](NC(=O)[C@H](C)NC(=O)[C@H](CC(C)C)NC(=O)[C@H](CCCCN)NC(=O)[C@H](C)NC(=O)[C@H](CC(C)C)NC(=O)[C@H](CCCCN)NC(=O)[C@H](CCCCN)NC(=O)[C@H](C)NC(=O)[C@H](CC(C)C)NC(=O)[C@H](CCCCN)NC(=O)[C@H](C)NC(=O)[C@H](CC(C)C)NC(=O)[C@H](CCCCN)NC(=O)[C@H](CCCCN)NC(=O)[C@H](C)NC(=O)[C@@H](N)C(C)C)C(N)=O [32 (50)]
CC50 at 24 h (in vitro [1]): 40 µg/mL (≈ 22.1 µM)
WI38 LD50 (WI38): 40 µg/mL
WBC LD50 (human leukocytes (WBC)): 420 µg/mL
CC50 [2]: 420 µg/mL (≈ 233 µM)
RBC LD50 [3]: 420 µg/mL
HC50 at 1 h (in vitro [4]): 420 µg/mL
MCF7 LD50 (MCF7; Table 41, lower part): 32 µg/mL
MCF7 LD50 (MCF7; Table 42): 32 µg/mL

MPKWKVFKKIEKVGRNIRNGIVKAGPAIAVLGEAKALG-NH2 (C-terminus assumed) [SB-37]
LD50 [5]: 5.20 µM
LD50 [6]: 64.0 µM
viability at 0.01 µM [7]: 100%
viability at 0.1 µM [7]: 79.4%
viability at 1 µM [7]: 48.8%
viability at 5 µM [7]: 38.5%
viability at 25 µM [7]: 0%
viability at 0.01 µM [8]: 100%
viability at 0.1 µM [8]: 100%
viability at 0.5 µM [8]: 81%
viability at 1 µM [8]: 47.5%
viability at 5 µM [8]: 31.8%
viability at 10 µM [8]: 5.6%
viability at 50 µM [8]: 1.9%
LD50 [9]: 0.57 µM
viability at 0.01 µM ([10]; S. intermedius 19930): 100%
viability at 0.1 µM ([10]; S. intermedius 19930): 94.7%
viability at 0.5 µM ([10]; S. intermedius 19930): 69.4%
viability at 1 µM ([10]; S. intermedius 19930): 42.5%
viability at 5 µM ([10]; S. intermedius 19930): 36.1%
viability at 10 µM ([10]; S. intermedius 19930): 5.6%
viability at 50 µM ([10]; S. intermedius 19930): 0%
viability at 0.01 µM ([10]; S. intermedius 20034): 100%
viability at 0.5 µM ([10]; S. intermedius 20034): 68%
viability at 5 µM ([10]; S. intermedius 20034): 35.1%
viability at 50 µM ([10]; S. intermedius 20034): 0%
LD50 [11]: 1.48 µM

FAKKLAKLAKKLLAL-NH2 [20 (38)]
CC50 at 24 h (in vitro [1]): 100 µg/mL
WI38 LD50 (WI38): 100 µg/mL
WBC LD50 (human leukocytes (WBC)): 54 µg/mL
CC50 [2]: 54 µg/mL
RBC LD50 [3]: 350 µg/mL
HC50 at 1 h (in vitro [4]): 350 µg/mL
MCF7 LD50 (MCF7; Table 41, lower part): 17 µg/mL
MCF7 LD50 (MCF7; Table 42): 17 µg/mL
